Laboratory results taken from US20250382344A1, “Soluble GLP1/GIP/NPY2 Receptor Triple Agonists” (Boehringer Ingelheim International GmH, priority 2024, published 2025).
Read-outs that look alike come from different tables or passages of the source.

Tests used:
[1] = Solubility in 0.1 M phosphate buffer at pH 7; type: physicochemical; conditions: 0.1 M phosphate buffer at pH 7, 10 mg/mL final peptide concentration, shaking 2 hours at room temperature, peptides as TFA-salts; measured sample pH 6.5-7.0
hGIPR = target: T1, hGIPR (Homo sapiens, UniProt P48546); assay: hGIPR CreLuc assay in 0.5% and 100% plasma (CHO CRE-luciferase reporter cells); type: cell-based
T1 construct: expressed in transfected cells; host or cells: CHO CRE-luciferase reporter cells
T1 sequence (P48546 22-466): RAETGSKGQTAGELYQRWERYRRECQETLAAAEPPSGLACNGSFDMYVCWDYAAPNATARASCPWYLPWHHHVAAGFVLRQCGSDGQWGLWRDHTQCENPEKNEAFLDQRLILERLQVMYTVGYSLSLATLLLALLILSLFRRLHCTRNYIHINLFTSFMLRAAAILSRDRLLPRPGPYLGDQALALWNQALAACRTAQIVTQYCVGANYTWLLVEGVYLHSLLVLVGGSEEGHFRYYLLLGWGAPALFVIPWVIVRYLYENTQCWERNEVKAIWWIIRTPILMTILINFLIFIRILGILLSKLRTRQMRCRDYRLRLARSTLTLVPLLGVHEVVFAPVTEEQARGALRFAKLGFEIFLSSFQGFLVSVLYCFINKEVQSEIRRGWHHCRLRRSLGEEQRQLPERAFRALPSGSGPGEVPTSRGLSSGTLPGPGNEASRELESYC

[2] = Mouse PK after intravenous application; type: in vivo; conditions: plasma, male NMRI mice, intravenous 30-60 nmol/kg, non-compartmental analysis
Outline: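 Male NMRI mice (30–40 g) dosed 30-60 nmol/kg by tail vein in 50 mM phosphate buffer pH 7.4/3.5% mannitol. Saphenous EDTA blood sampled from conscious animals up to 56 h; plasma peptide quantified by LC-MS. Parameters from non-compartmental analysis of individual profiles.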

hGLP1R = target: T2, hGLP1R (Homo sapiens, UniProt P43220); assay: hGLP1R CreLuc assay in 0.5% and 100% plasma (HEK-293 CRE-luciferase reporter cells); type: cell-based; conditions: HEK-293 reporter cells
T2 construct: expressed in transfected cells; host or cells: HEK-293 CRE-luciferase reporter cells
T2 sequence (P43220 24-463): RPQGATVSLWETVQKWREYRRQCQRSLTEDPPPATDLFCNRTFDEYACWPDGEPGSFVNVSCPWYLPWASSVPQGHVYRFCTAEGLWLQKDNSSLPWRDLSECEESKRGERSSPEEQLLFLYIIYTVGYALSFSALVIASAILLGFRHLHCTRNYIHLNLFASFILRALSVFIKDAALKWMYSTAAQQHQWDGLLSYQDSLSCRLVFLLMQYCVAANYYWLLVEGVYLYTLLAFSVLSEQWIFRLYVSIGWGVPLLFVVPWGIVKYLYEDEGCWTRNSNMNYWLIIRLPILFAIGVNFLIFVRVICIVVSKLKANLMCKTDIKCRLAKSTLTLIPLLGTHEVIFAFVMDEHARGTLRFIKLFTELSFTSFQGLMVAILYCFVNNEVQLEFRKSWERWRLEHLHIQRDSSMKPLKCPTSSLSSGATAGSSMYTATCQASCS

Normal NMRI Mice = assay: Effect on acute food intake in normal NMRI mice; type: in vivo; conditions: male NMRI mice, single subcutaneous dose 100 nmol/kg, 24 hours food intake normalized to vehicle group
Protocol: Male NMRI mice were obtained from Janvier (Janvier Labs, France) or from Charles River (Charles River Research Models & Services Germany GmbH) at the age of 3 weeks. The animals get a microchip (Datamars, Slim Microchip T-SL) for individual identification after delivery. They were housed with 4 mice per cage under a 12/12 dark-light cycle, light off at 3 p.m. Room temperature was controlled to 21° C.+/−1° C. and humidity 60%+/−20%. Mice had ad libitum access to regular rodent chow (KLIBA Nafag 3040 or Altromin 1324, Brogaarden, Denmark) and tap water.
Latest transfer into the HM2-System of MBRose, Denmark (real-time monitoring system of food- and water intake) of the animals 5 days before study start, to allow acclimatization to experimental conditions. As the animals were uniquely identified with the microchips, each individual animal was identified by its own microchip upon entry and exit from the food channel via antennae. Randomization of the mice for each study group (n=8; age earliest 6 weeks old) was based on food intake (middle of last three days 24 h-interval) and bodyweight directly before start of the study. A vehicle treated (50 mM phosphate buffer pH 7.4 with 3.5% mannitol) group was included in each experiment. To have the same nutrition standard for each animal the food access was locked eight hours before dark phase. One hour before night, the animals were once treated subcutaneously with the test peptide. Food intake was reported hourly for a period of 24 hours.

[3] = 0.5% human plasma, read-out: hGIPR 0.5% hP
[4] = 0.5% human plasma, read-out: hGLP1R 0.5% hP
[5] = 100% human plasma, read-out: hGLP1R 100% hP
[6] = 100% human plasma, read-out: hGIPR 100% hP

Structure (SMILES) | solubility at 2 h [1] [mg/mL] | EC50 (hGIPR; [3]) [pM] | MRT [2] [h] | EC50 (hGLP1R; [4]) [pM] | EC50 (hGLP1R; [5]) [pM] | Acute Food Intake 24 hours 100 nmol/kg [% CTL] (Normal NMRI Mice) | EC50 (hGIPR; [6]) [pM]
CC[C@H](C)[C@H](NC(=O)[C@H](CC(C)C)NC(=O)[C@H](Cc1c[nH]cn1)NC(=O)[C@H](CCCNC(=N)N)NC(=O)[C@@H](NC(=O)[C@H](Cc1ccccc1)NC(=O)[C@H](C)NC(=O)C(C)(C)NC(=O)[C@H](CCC(N)=O)NC(=O)[C@H](C)NC(=O)[C@H](CCC(N)=O)NC(=O)[C@H](CCCCN)NC(=O)[C@H](CCC(=O)O)NC(=O)[C@H](CC(C)C)NC(=O)C(C)(C)NC(=O)[C@@H](NC(=O)[C@H](CO)NC(=O)[C@H](Cc1ccc(O)cc1)NC(=O)[C@H](CC(=O)O)NC(=O)[C@H](CO)NC(=O)[C@@H](NC(=O)[C@H](Cc1ccccc1)NC(=O)[C@@H](NC(=O)CNC(=O)[C@H](CCC(=O)O)NC(=O)C(C)(C)NC(=O)[C@@H](N)Cc1ccc(O)cc1)[C@@H](C)O)[C@@H](C)O)[C@@H](C)CC)C(C)C)C(=O)N[C@@H](CC(N)=O)C(=O)N[C@@H](CCCCNC(=O)CC[C@H](NC(=O)CC[C@H](NC(=O)CC[C@H](NC(=O)CC[C@H](NC(=O)CC[C@H](NC(=O)CC[C@H](NC(=O)CCCCCCCCCCCCCCCCCCC(=O)O)C(=O)O)C(=O)O)C(=O)O)C(=O)O)C(=O)O)C(=O)O)C(=O)NC(C)(C)C(=O)N[C@H](C(=O)N[C@@H](CCCNC(=N)N)C(=O)N[C@@H](CCC(N)=O)C(=O)N[C@@H](CCCNC(=N)N)C(=O)N[C@@H](Cc1ccc(O)cc1)C(N)=O)[C@@H](C)O [Compound 3, Y-Aib-E-G-T-F-T-S-D-Y-S-I-Aib-L-E-K-Q-A-Q-Aib-A-F-V-R-H-L-I-N-K(1,3)-Aib-T-R-Q-R-Y-NH2.C20DA-gGlu-gGlu-gGlu-gGlu-gGlu-gGlu(1,2)] | 6.9 | 700 | 17.2 | 3000 | 13900 | 74 | –
CC[C@H](C)[C@H](NC(=O)[C@H](Cc1ccccc1)NC(=O)[C@H](C)NC(=O)C(C)(C)NC(=O)[C@H](CCC(N)=O)NC(=O)[C@H](C)NC(=O)[C@H](CCC(N)=O)NC(=O)[C@H](CCCCN)NC(=O)[C@H](CCC(=O)O)NC(=O)[C@H](CC(C)C)NC(=O)[C@](C)(CC(C)C)NC(=O)[C@@H](NC(=O)[C@H](CO)NC(=O)[C@H](Cc1ccc(O)cc1)NC(=O)[C@H](CC(=O)O)NC(=O)[C@H](CO)NC(=O)[C@@H](NC(=O)[C@H](Cc1ccccc1)NC(=O)[C@@H](NC(=O)CNC(=O)[C@H](CCC(=O)O)NC(=O)C(C)(C)NC(=O)[C@@H](N)Cc1ccc(O)cc1)[C@@H](C)O)[C@@H](C)O)[C@@H](C)CC)C(=O)N[C@@H](CCCNC(=N)N)C(=O)N[C@@H](Cc1c[nH]cn1)C(=O)N[C@@H](CC(C)C)C(=O)N[C@H](C(=O)N[C@@H](CC(N)=O)C(=O)N[C@@H](CCCCNC(=O)[C@@H](N)CCCCNC(=O)CC[C@H](NC(=O)CC[C@H](NC(=O)CC[C@H](NC(=O)CC[C@H](NC(=O)CC[C@H](NC(=O)CC[C@H](NC(=O)CCCCCCCCCCCCCCCCCCC(=O)O)C(=O)O)C(=O)O)C(=O)O)C(=O)O)C(=O)O)C(=O)O)C(=O)NC(C)(C)C(=O)N[C@H](C(=O)N[C@@H](CCCNC(=N)N)C(=O)N[C@@H](CCC(N)=O)C(=O)N[C@@H](CCCNC(=N)N)C(=O)N[C@@H](Cc1ccc(O)cc1)C(N)=O)[C@@H](C)O)[C@@H](C)CC [Compound 53, Y-Aib-E-G-T-F-T-S-D-Y-S-I-aMeL-L-E-K-Q-A-Q-Aib-A-F-I-R-H-L-I-N-K(1,3)-Aib-T-R-Q-R-Y-NH2.C20DA-gGlu-gGlu-gGlu-gGlu-gGlu-gGlu-eLys(1,2)] | 10 | 100 | 14.4 | 300 | – | 47 | 1700
CC[C@H](C)[C@H](NC(=O)[C@H](CC(C)C)NC(=O)[C@H](Cc1c[nH]cn1)NC(=O)[C@H](CCCNC(=N)N)NC(=O)[C@@H](NC(=O)[C@H](Cc1ccccc1)NC(=O)[C@H](C)NC(=O)C(C)(C)NC(=O)[C@H](CCC(N)=O)NC(=O)[C@H](C)NC(=O)[C@H](CCC(N)=O)NC(=O)[C@H](CCCCN)NC(=O)[C@H](CCC(=O)O)NC(=O)[C@H](CC(C)C)NC(=O)[C@](C)(CC(C)C)NC(=O)[C@@H](NC(=O)[C@H](CO)NC(=O)[C@H](Cc1ccc(O)cc1)NC(=O)[C@H](CC(=O)O)NC(=O)[C@H](CO)NC(=O)[C@@H](NC(=O)[C@H](Cc1ccccc1)NC(=O)[C@@H](NC(=O)CNC(=O)[C@H](CCC(=O)O)NC(=O)C(C)(C)NC(=O)[C@@H](N)Cc1ccc(O)cc1)[C@@H](C)O)[C@@H](C)O)[C@@H](C)CC)C(C)C)C(=O)N[C@@H](CC(N)=O)C(=O)N[C@@H](CCCCNC(=O)[C@@H](N)CCCCNC(=O)CC[C@H](NC(=O)CC[C@H](NC(=O)CC[C@H](NC(=O)CC[C@H](NC(=O)CC[C@H](NC(=O)CC[C@H](NC(=O)CC[C@H](NC(=O)CCCCCCCCCCCCCCCCCCC(=O)O)C(=O)O)C(=O)O)C(=O)O)C(=O)O)C(=O)O)C(=O)O)C(=O)O)C(=O)NC(C)(C)C(=O)N[C@H](C(=O)N[C@@H](CCCNC(=N)N)C(=O)N[C@@H](CCC(N)=O)C(=O)N[C@@H](CCCNC(=N)N)C(=O)N[C@@H](Cc1ccc(O)cc1)C(N)=O)[C@@H](C)O [Compound 78, Y-Aib-E-G-T-F-T-S-D-Y-S-I-aMeL-L-E-K-Q-A-Q-Aib-A-F-V-R-H-L-I-N-K(1,3)-Aib-T-R-Q-R-Y-NH2.C20DA-gGlu-gGlu-gGlu-gGlu-gGlu-gGlu-gGlu-eLys(1,2)] | 10.3 | 100 | – | 200 | – | 65 | –
CC[C@H](C)[C@H](NC(=O)[C@H](Cc1ccccc1)NC(=O)[C@H](C)NC(=O)C(C)(C)NC(=O)[C@H](CCC(N)=O)NC(=O)[C@H](C)NC(=O)[C@H](CCC(N)=O)NC(=O)[C@H](CCCCN)NC(=O)[C@H](CCC(=O)O)NC(=O)[C@H](CC(C)C)NC(=O)C(C)(C)NC(=O)[C@@H](NC(=O)[C@H](CO)NC(=O)[C@H](Cc1ccc(O)cc1)NC(=O)[C@H](CC(=O)O)NC(=O)[C@H](CO)NC(=O)[C@@H](NC(=O)[C@H](Cc1ccccc1)NC(=O)[C@@H](NC(=O)CNC(=O)[C@H](CCC(=O)O)NC(=O)C(C)(C)NC(=O)[C@@H](N)Cc1ccc(O)cc1)[C@@H](C)O)[C@@H](C)O)[C@@H](C)CC)C(=O)N[C@@H](CCCNC(=N)N)C(=O)N[C@@H](Cc1c[nH]cn1)C(=O)N[C@@H](CC(C)C)C(=O)N[C@H](C(=O)N[C@@H](CC(N)=O)C(=O)N[C@@H](CCCCNC(=O)[C@@H](N)CCCCNC(=O)CC[C@H](NC(=O)CC[C@H](NC(=O)CC[C@H](NC(=O)CC[C@H](NC(=O)CC[C@H](NC(=O)CC[C@H](NC(=O)CCCCCCCCCCCCCCCCC(=O)O)C(=O)O)C(=O)O)C(=O)O)C(=O)O)C(=O)O)C(=O)O)C(=O)NC(C)(C)C(=O)N[C@H](C(=O)N[C@@H](CCCNC(=N)N)C(=O)N[C@@H](CCC(N)=O)C(=O)N[C@@H](CCCNC(=N)N)C(=O)N[C@@H](Cc1ccc(O)cc1)C(N)=O)[C@@H](C)O)[C@@H](C)CC [Compound 88, Y-Aib-E-G-T-F-T-S-D-Y-S-I-Aib-L-E-K-Q-A-Q-Aib-A-F-I-R-H-L-I-N-K(1,3)-Aib-T-R-Q-R-Y-NH2.C18DA-gGlu-gGlu-gGlu-gGlu-gGlu-gGlu-eLys(1,2)] | 10.4 | 100 | – | 200 | 1800 | 47 | 1700
